The results in this text go back to ChEMBL document CHEMBL1136432, “Discovery of potent imidazole and cyanophenyl containing farnesyltransferase inhibitors with improved oral bioavailability” (Bioorg Med Chem Lett, 2003).

pEC50, pIC50: −log10 of the molar value.

The subject of one series is NIH3T3. Briefly: Concentration needed to reduce 50% of farnesylation in NIH3T3 H-ras cell line. It is filed as functional, cell-based. The note with it: Mus musculus.
In series [1] the target is T1, Protein farnesyltransferase (Bos taurus, UniProt P29702+P49355). The experiment in a line: Inhibition of transfer of [3H]FPP to biotin K-ras peptide (KKSKTKCVIM) catalyzed by bovine FTase. It is filed as protein-complex assay.
Series [2] is described as follows: Oral bioavailability in monkey. The note with it: cercopithecidae, in vivo.
A further series is described as follows: in vivo. The note with it: dog, po, 5 mg/kg.
For series [3], the target named is Geranylgeranyl transferase type I (Bos taurus, UniProt P29702+Q5EAD5). Briefly: Inhibition of [3H]FPP transfer to biotin K-ras peptide (KKSKTKCVLL) catalyzed by bovine GGTase-I.
For series [4], the target named is T1, Protein farnesyltransferase. Briefly: Inhibition of [3H]FPP transfer to biotin K-ras peptide (KKSKTKCVIM) by bovine FTase. In kind it is protein-complex assay.
Series [5] is described as follows: Pharmacokinetic (PK) property (AUC) was determined in dog at the single oral dose of 1 mg/kg. The note with it: in vivo. On the set-up: dose 1 mg/kg, route oral. It is filed as ADME, organism-based, Canis lupus familiaris.
A short description of series [6]: Half life in dog at the single oral dose of 1 mg/kg. In kind it is ADME, organism-based, Canis lupus familiaris. On the set-up: dose 1 mg/kg, route oral. As to conditions: in vivo.
Series [7] is described as follows: Pharmacokinetic (PK) property (Cmax) was determined in dog at the single dose of 1 mg/kg. It is filed as ADME, organism-based, Canis lupus familiaris. Further details: dose 1 mg/kg. As to conditions: in vivo.
Series [8] can be described thus: Pharmacokinetic (PK) property (Tmax) was determined in dog at the single dose of 1 mg/kg. On the set-up: dose 1 mg/kg. In kind it is ADME, organism-based, Canis lupus familiaris. As to conditions: in vivo.

Description for in vivo: Oral bioavailability in dog (dose 5 mg/kg)

As a reminder, the pEC50 is −log10 of the EC50, conventionally taken in molar units. Broadly, the pIC50 is the negative decadic logarithm of the IC50, by convention in mol/L. The compound `Cn1cncc1C(OCc1ccc(C#N)cc1-c1cccc2ccccc12)c1ccc(C#N)nc1` (stereo unspecified) had a pEC50 in the series with NIH3T3 of 7.34. The same compound showed a pIC50 in series [1] of 8.77.

The compound `Cn1cncc1C(OCc1nc(Cl)c(C#N)cc1-c1cccc(Cl)c1)c1ccc(C#N)cc1` (stereo unspecified) gave a negative-log EC50 (pEC50) with NIH3T3 of 7.54.

`Cn1cncc1C(OCc1ccc(C#N)cc1-c1ccc2c(c1)OCO2)c1ccc(C#N)nc1` (stereo unspecified): the pEC50 with NIH3T3 is 8.46. Besides, in [1], the pIC50 was 9.08.

In the case of `Cn1cncc1C(OCc1ccc(C#N)c(-c2cccc(Cl)c2)n1)c1ccc(C#N)cc1` (stereo unspecified), in [1], the negative logarithm of the IC50 (pIC50) is 7.92.

The compound `Cn1cncc1C(OCc1cnc(C#N)cc1-c1cccc(Cl)c1)c1ccc(C#N)cc1` (stereo unspecified) gave a negative-log EC50 (pEC50) with NIH3T3 of 7.77. This compound gave a negative logarithm of the IC50 (pIC50) in series [1] of 8.74.

With `Cn1cncc1C(OCc1nc(N2CCC(C(N)=O)CC2)c(C#N)cc1-c1cccc(Cl)c1)c1ccc(C#N)cc1` (stereo unspecified), in the series on NIH3T3, the pEC50 was 8.82. The compound also showed a pIC50 in series [1] of 9.14.

Regarding `Cn1cncc1C(OCc1ccc(C#N)cc1-c1cc(Cl)cc(Cl)c1)c1ccc(C#N)nc1` (stereo unspecified), the pEC50 in the series with NIH3T3 is 8.46. For the same compound, the pIC50 in [1] is 9.19.

Compound `Cn1cncc1C(OCc1ccc(C#N)nc1N1CCOCC1)c1ccc(C#N)cc1` (stereo unspecified) gave a negative logarithm of the EC50 (pEC50) with NIH3T3 of 7.06. The compound also gave a pIC50 in series [1] of 8.72.

In series [1], `Cn1cncc1C(OCc1ccc(C#N)c(-c2cccc(C#N)c2)n1)c1ccc(C#N)cc1` (stereo unspecified) had a negative logarithm of the IC50 (pIC50) of 7.17.

In the series with NIH3T3, `CN1CCN(c2nc(COC(c3ccc(C#N)cc3)c3cncn3C)c(-c3cccc(Cl)c3)cc2C#N)CC1` (stereo unspecified) gave a pEC50 of 8.70. In addition, the pIC50 in series [1] was 9.24.

In the case of `Cn1cncc1C(OCc1ccc(C#N)nc1-c1cccc(OC(F)(F)F)c1)c1ccc(C#N)cc1` (stereo unspecified), the pEC50 with NIH3T3 is 8.70. In [1], this compound showed a pIC50 of 9.74.

The compound `Cn1cncc1C(OCc1ccc(C#N)nc1-c1cccc(Cl)c1)c1ccc(C#N)cc1` (stereo unspecified) gave a pEC50 with NIH3T3 of 8.74. This compound gave a pIC50 in [1] of 9.09.

As a reminder, the bioavailability is the share of a dose that reaches the circulation, judged against a reference dose that is usually intravenous. `Cn1cncc1C(OCc1ccc(C#N)cc1)c1ccc(C#N)c(-c2cccc3cccnc23)c1` (stereo unspecified) had a pEC50 in the series with NIH3T3 of 8.43. In addition, the bioavailability turned out to be 92% in series [2] and 53% in the series “in vivo”. This compound gave a pIC50 in [1] of 8.70.

In the case of `Cn1cncc1C(OCc1ccc(C#N)cc1-c1cccc(OC(F)(F)F)c1)c1ccc(C#N)nc1` (stereo unspecified), the pEC50 in the series with NIH3T3 was 7.62. Also, the pIC50 in [1] is 9.40.

`Cn1cncc1C(OCc1ccc(C#N)cc1-c1cccc(Cl)c1)c1ccc(C#N)nc1` (stereo unspecified) had a pEC50 in the series on NIH3T3 of 8.68. In series [1], this compound had a pIC50 of 9.12.

The compound `CN1CCN(c2nc(COC(c3ccc(C#N)cc3)c3cncn3C)ccc2C#N)CC1` (stereo unspecified) showed a pIC50 in series [1] of 7.24.

Take `Cn1cncc1C(OCc1nc(N2CCC(O)CC2)c(C#N)cc1-c1cccc(Cl)c1)c1ccc(C#N)cc1` (stereo unspecified): in the series on NIH3T3, the pEC50 was 8.44. The compound also gave a negative-log IC50 (pIC50) in series [1] of 9.29.

Take `Cn1cncc1C(OCc1ccc(C#N)c(-c2ccc3ccccc3c2)n1)c1ccc(C#N)cc1` (stereo unspecified): the pIC50 in series [1] was 8.09.

`Cn1cncc1C(OCc1ccc(C#N)nc1-c1ccc(OC(F)(F)F)cc1)c1ccc(C#N)cc1` (stereo unspecified) gave a negative-log EC50 (pEC50) with NIH3T3 of 8.40. Besides, the pIC50 in [1] is 9.29.

`Cn1cncc1C(OCc1ncc(C#N)cc1-c1cccc(Cl)c1)c1ccc(C#N)cc1` (stereo unspecified): the pEC50 with NIH3T3 is 8.00. The compound further showed a negative-log IC50 (pIC50) in [1] of 9.04.

Compound `CC(=O)N1CCN(c2nc(COC(c3ccc(C#N)cc3)c3cncn3C)c(-c3cccc(Cl)c3)cc2C#N)CC1` (stereo unspecified) had a pEC50 in the series with NIH3T3 of 9.40. In addition, the pIC50 in [1] is 9.01.

In the series with NIH3T3, `Cn1cncc1C(OCc1ccc(C#N)nc1-c1cc(Cl)cc(Cl)c1)c1ccc(C#N)cc1` (stereo unspecified) gave a negative-log EC50 (pEC50) of 8.22. Further, the pIC50 in [1] is 9.35.

Regarding `Cn1cncc1C(OCc1ccc(C#N)cc1-c1cc(F)cc(F)c1)c1ccc(C#N)nc1` (stereo unspecified), the pEC50 in the series on NIH3T3 is 7.60. In series [1], this compound had a pIC50 of 8.70.

`Cn1cncc1C(OCc1ccc(C#N)nc1-c1ccc2ccccc2c1)c1ccc(C#N)cc1` (stereo unspecified) had a pEC50 with NIH3T3 of 8.13. The same compound gave a pIC50 in series [1] of 9.80.

Take `Cn1cncc1C(OCc1ccc(C#N)nc1N1CCN(C(=O)OC(C)(C)C)CC1)c1ccc(C#N)cc1` (stereo unspecified): in [1], the pIC50 is 7.36.

`Cn1cncc1C(OCc1ccc(C#N)nc1-c1ccccc1)c1ccc(C#N)cc1` (stereo unspecified) showed a pEC50 in the series with NIH3T3 of 7.72. This compound had a pIC50 in [1] of 8.41.

In the series with NIH3T3, `Cn1cncc1C(OCc1ccc(C#N)cc1-c1ccc(F)c(Cl)c1)c1ccc(C#N)nc1` (stereo unspecified) had a pEC50 of 7.34. In addition, the pIC50 in [1] is 9.00.

In the series with NIH3T3, `Cn1cncc1C(OCc1ccc(C#N)cc1)c1ccc(C#N)c(-c2cccc3ccccc23)c1` (stereo unspecified) gave a pEC50 of 6.96. Moreover, the negative-log IC50 (pIC50) in [3] was 7.74; in series [4] it was 9.70.

Regarding `Cn1cncc1C(OCc1ccc(C#N)c(-c2ccc(Cl)cc2)n1)c1ccc(C#N)cc1` (stereo unspecified), in series [1], the pIC50 was 7.60.

Compound `Cn1cncc1C(OCc1nc(N2CCN(C(=O)OC(C)(C)C)CC2)c(C#N)cc1-c1cccc(Cl)c1)c1ccc(C#N)cc1` (stereo unspecified) had a pEC50 in the series with NIH3T3 of 8.35.

The AUC is concentration integrated over time. A word on the half-life: it is the time in which the quantity being followed falls by half. The term Cmax denotes the maximum level reached in the sampled fluid or tissue. Usually Tmax stands for the time from dosing to the highest level. For the compound `Cn1cncc1C(OCc1ccc(C#N)nc1-c1ccc2c(c1)OC(F)(F)O2)c1ccc(C#N)cc1` (stereo unspecified), the pEC50 with NIH3T3 is 8.92. The pIC50 in [1] is 9.74. The AUC in [5] came to 2800 ng·h/mL. The compound also gave a half-life in [6] of 7.6 h. The compound also had a Cmax in series [7] of 260 ng/mL. Moreover, the Tmax in series [8] is 1 h.

As to `Cn1cncc1C(OCc1ccc(C#N)nc1-c1cc(F)cc(F)c1)c1ccc(C#N)cc1` (stereo unspecified), in the series with NIH3T3, the pEC50 was 8.66. The compound also showed a pIC50 in series [1] of 9.15.

In the case of `COc1cccc(-c2cc(C#N)ccc2COC(c2ccc(C#N)nc2)c2cncn2C)c1` (stereo unspecified), in the series with NIH3T3, the pEC50 was 7.70. Besides, the pIC50 in [1] was 9.06.

`Cn1cncc1C(OCc1nc(N2CCOCC2)c(C#N)cc1-c1cccc(Cl)c1)c1ccc(C#N)cc1` (stereo unspecified) gave a pEC50 in the series on NIH3T3 of 8.92. Moreover, the pIC50 in series [1] was 9.60.

`COc1cccc(-c2cc(C#N)ccc2COC(c2ccc(C#N)cc2)c2cncn2C)c1` (stereo unspecified): the pEC50 in the series with NIH3T3 is 8.92. The compound also showed a pIC50 in series [1] of 9.21.

Regarding `Cn1cncc1C(OCc1ccc(C#N)cn1)c1ccc(C#N)c(-c2cccc3ccccc23)c1` (stereo unspecified), the pEC50 in the series with NIH3T3 was 8.22. Also, the pIC50 in series [1] is 9.37.
